Assay results as given in US20090137565A1, “Method for treatment of movement disorders” (The Trustees of Columbia University in the City of New York, priority 2004, published 2009).
Entries after “also recorded” stand apart in the source; their conditions may differ.

Assays:
[1] = test system: ethanol-responsive essential tremor; assay: Five-patient open-label trial of sodium oxybate, blinded WHIGET tremor rating (patients #4, 5); type: in vivo, human; conditions: for WHIGET TOTAL SUSTENTION score: range 0-6; for Rx effect, WHIGET TOTAL ACTION (improvement in tremor): listed as sodium oxybate, monosodium salt
Excerpt: Five patients were enrolled in a trial from the Movement Disorders Division of Columbia University Medical Center during the fall of 2004. All patients were afflicted with hyperkinetic movement disorders that responded to ethanol (defined as a noticeable change to the patient), and all were refractory to treatment with conventional medications or could not tolerate them. The Medical Center's Institutional Review Board approved the trial, and written and verbal informed consent were obtained from all patients prior to enrollment.
The dose and timing of all other drugs were kept constant throughout the trial, and patients were not withdrawn from other medications. Patients #1-3 were examined and videotaped using the Unified Myoclonus Rating Scale (UMRS), and patients #4 and 5 were examined and videotaped using the Washington Heights Inwood Tremor Rating Scale (WHIGET) (see Appendix I). Frucht S. J., et al. Adv Neurol 89:361-76 (2002); Louis, E. D., et al. Mov Disord 16:89-93 (2001).
(§1) Side effects were defined as either minor or serious (leading to hospitalization) using good clinical practice standards (www.who.int/medicines/library/par/ggcp/GCPGuidePharmatrials), and patients were asked to report side effects at each visit. After initial examination and videotaping, patients were given 1 gm of sodium oxybate by mouth (2 ml of the standard 0.5 gm/ml solution dissolved in 60 ml of water). One hour later, the senior author repeated the examination and videotaping. […] After two weeks taking 2 gm twice daily, the procedure was repeated after a 3 gm office dose, and finally two weeks after receiving 3 gm twice daily, the procedure was repeated after a 4 gm office dose. The maximum dose allowed in the trial was 4 gm twice daily. Patients and the senior author determined at each visit whether or not to proceed to the next dose level, based principally on their ability to tolerate the most recent dose regimen. After deciding on a maximum tolerated dose, patients received a dose in the office 0.5 gm less and the examination was videotaped.
The entire videotape segments and patient-writing samples from each visit were copied, and were blinded to trial order and identifying features, and were randomly ordered for review using a random number table. A movement disorder expert blinded to trial design and dose schedule, scored each videotape. Sub-scores for each visit were calculated as described previously. Frucht S. J., et al. Adv Neurol 89:361-76 (2002). We modified section 5 of the UMRS in which functional performance (pouring water, using a soup spoon) is performed only with the dominant arm (section V). […] This increased the maximum score of section 5 of the UMRS from 20 to 28.

[2] = Five-patient trial: tolerability of Xyrem; type: in vivo, human
Experimental: as §1

[3] = patient 4, listed as Xyrem ®, monosodium salt

For `O=C([O-])CCCO.[Na+]` [GHB, 4-hydroxybutanoic acid monosodium salt], the “WHIGET TOTAL ACTION score” value ([1]; patient 4, 1 gm, range 0-40, 0 gm score 19.5) was 10, the “WHIGET TOTAL SUSTENTION score” value ([1]; patient 4, 1.5 gm, 0 gm score 2.5) was 0.5 and the “WHIGET TOTAL ACTION score” value ([1]; patient 4, 1.5 gm, range 0-40, 0 gm score 19.5) was 4. The “WHIGET TOTAL SUSTENTION score” value ([1]; patient 4, 2 gm, 0 gm score 2.5) was 0, the “WHIGET TOTAL ACTION score” value ([1]; patient 4, 2 gm, range 0-40, 0 gm score 19.5) was 5 and the “Rx effect, WHIGET TOTAL ACTION (improvement in tremor)” value ([1]; patient 4) was 79%. For the same compound, the “WHIGET TOTAL ACTION score” value ([1]; patient 5, 1 gm, 0 gm score 23) was 19, the “WHIGET TOTAL ACTION score” value ([1]; patient 5, 1.5 gm, 0 gm score 23) was 13.5 and the “WHIGET TOTAL SUSTENTION score” value ([1]; patient 5, 1.5 gm, 0 gm score 4) was 2.5. For the same compound, the “WHIGET TOTAL ACTION score” value ([1]; patient 5, 2 gm, 0 gm score 23) was 12, the “WHIGET TOTAL SUSTENTION score” value ([1]; patient 5, 2 gm, 0 gm score 4) was 3 and the “Rx effect, WHIGET TOTAL ACTION (improvement in tremor)” value ([1]; patient 5) was 48%. The “Blinded rating of the severity of torticollis” value ([1]; patient #4, 1 gm twice-daily dose, before: moderate) was “mild”, the kinetic tremor amplitude ([1]; patient #4, after 2 gm) was “markedly diminished” and the kinetic tremor amplitude ([1]; patient #5, after 2 gm) was “the amplitude has diminished”. For the same compound, the “common side effects not requiring dose reduction” value ([2]; five patients) was “Transient headache and dizziness”, the “Dose @ D-L-SE” value ([2]; patient 1) was 3 gm and the “D-L-SE (dose-limiting side effect)” value ([2]; patient 1, disinhibition printed as mild, listed as Xyrem ®, monosodium salt) was “sedation and mild; also recorded: disinhibition”. For the same compound, the “SER SE (serious side effect, leading to hospitalization)” value ([2]; patient 1, judged not likely related to study drug) was “asthma”, the “Dose @ D-L-SE” value ([2]; patient 2) was 3 gm and the “MILD SE” value ([2]; patient 2) was “Ø”. The “SER SE” value ([2]; patient 2) was “Ø”, the “D-L-SE (dose-limiting side effect)” value ([2]; patient 2, listed as Xyrem ®, monosodium salt) was “emotional lability” and the “D-L-SE (dose-limiting side effect)” value ([2]; patient 3) was “slight sedation”. The “Dose @ D-L-SE” value ([2]; patient 3) was 4 gm, the “SER SE” value ([2]; patient 3) was “Ø” and the “MILD SE” value ([2]; patient 3, listed as Xyrem ®, monosodium salt) was “HA (1 gm); also recorded: dizzy (1 gm)”. For the same compound, the “Dose @ D-L-SE” value ([2]; patient 4) was 2 gm, the “SER SE” value ([2]; patient 4) was “Ø” and the “D-L-SE (dose-limiting side effect)” value [2, 3] was “emotional lability”. The “MILD SE” value [2, 3] was “HA (1 gm); also recorded: dizzy (2 gm)”, the “D-L-SE (dose-limiting side effect)” value ([2]; patient 5) was “slight sedation” and the “Dose @ D-L-SE” value ([2]; patient 5) was 2 gm. For the same compound, the “MILD SE” value ([2]; patient 5) was “Ø” and the “SER SE” value ([2]; patient 5) was “Ø”.
